# Positions of bridges follow the written chain, without caps; N, C: chain ends. Non-standard residues stand in square brackets, D forms with d. Residues, ends and D or L forms follow the SMILES beside them. ξ: configuration not given here. *: point of attachment. Dihydroorotyl(S) = O=C1C[C@@H](C(=O)*)NC(=O)N1; ξTrp(5-Me) = Cc1ccc2[nH]cc(CC(N)C(=O)O)c2c1; Phe(3-Cl) = N[C@@H](Cc1cccc(Cl)c1)C(=O)O; Phe(3-OMe) = COc1cccc(C[C@H](N)C(=O)O)c1; Phe(4-F) = N[C@@H](Cc1ccc(F)cc1)C(=O)O; dPhe(2-Me) = Cc1ccccc1C[C@@H](N)C(=O)O; 1Nal = N[C@@H](Cc1cccc2ccccc12)C(=O)O; His(τ-Me) = Cn1cnc(C[C@H](N)C(=O)O)c1; Bta = N[C@@H](Cc1csc2ccccc12)C(=O)O; d(hCha) = N[C@H](CCC1CCCCC1)C(=O)O; Hyp = O=C(O)[C@@H]1C[C@@H](O)CN1; d(hLeu) = CC(C)CC[C@@H](N)C(=O)O; hArg = N=C(N)NCCCC[C@H](N)C(=O)O; 2Thi = N[C@@H](Cc1cccs1)C(=O)O; Cit = NC(=O)NCCC[C@H](N)C(=O)O; dCha = N[C@H](CC1CCCCC1)C(=O)O; Nicotinoyl = O=C(c1cccnc1)*; Nle = CCCC[C@H](N)C(=O)O; Orn = NCCC[C@H](N)C(=O)O; Pra = C#CC[C@H](N)C(=O)O; Aze = O=C(O)[C@@H]1CCN1; Nme = COCCNCC(=O)O; βAla = NCCC(=O)O; tBu = CC(C)(C)*
# Target: T1, human C5aR(CD88) (Homo sapiens, UniProt P21730)
# T1 construct: expressed in transfected cells; host or cells: rat basophilic leukemia cells (RBL)
# T1 sequence (P21730 1-350): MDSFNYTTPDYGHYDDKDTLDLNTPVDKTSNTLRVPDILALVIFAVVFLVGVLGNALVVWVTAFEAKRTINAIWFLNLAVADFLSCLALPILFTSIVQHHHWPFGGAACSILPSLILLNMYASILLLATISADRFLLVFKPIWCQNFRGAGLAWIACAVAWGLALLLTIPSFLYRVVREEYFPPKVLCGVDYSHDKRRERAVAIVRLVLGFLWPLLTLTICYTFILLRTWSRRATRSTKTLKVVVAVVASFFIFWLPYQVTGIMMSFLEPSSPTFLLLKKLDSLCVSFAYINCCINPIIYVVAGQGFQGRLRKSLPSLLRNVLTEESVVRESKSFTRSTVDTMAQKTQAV
# Experiment: Determination of the IC50 value in an enzyme release assay (functional assay, antagonistic activity)
# Type: cell-based
# Details: activity (group)
row,SMILES,IC50 [nM]
1,"CC(=O)N[C@@H](Cc1ccccc1)C(=O)N[C@@H](CCCN)C(=O)N1CCC[C@H]1C(=O)N[C@H](CCC(C)C)C(=O)N[C@@H](Cc1cccc(Cl)c1)C(=O)N[C@@H](Cc1ccccc1)C(N)=O [Compound 291, Ac-Phe-Orn-Pro-hle-Mcf-Phe-NH2] (Ac-F[Orn]P[d(hLeu)][Phe(3-Cl)]F-NH2)",50 to 200
2,"CC(=O)N[C@@H](Cc1ccccc1)C(=O)N[C@@H](CCCN)C(=O)N1CCC[C@H]1C(=O)N[C@H](CCC(C)C)C(=O)N[C@@H](Cc1ccc(F)cc1)C(=O)N[C@@H](Cc1ccccc1)C(N)=O [Compound 302, Ac-Phe-Orn-Pro-hle-Pff-Phe-NH2] (Ac-F[Orn]P[d(hLeu)][Phe(4-F)]F-NH2)",50 to 200

# Same assay, conditions: antagonistic activity; IC50 group in enzyme release assay, RBL cells expressing human C5aR(CD88); read-out: activity (group)
row,SMILES,IC50 [nM]
1,"CC(=O)NCC(=O)N[C@@H](Cc1cccs1)C(=O)N[C@@H](CCCN)C(=O)N1CC[C@H]1C(=O)N[C@H](CC1CCCCC1)C(=O)N[C@@H](Cc1csc2ccccc12)C(=O)N[C@@H](Cc1ccccc1)C(N)=O [Compound 157, Ac-Gly-Thi-Orn-Aze-cha-Bta-Phe-NH2] (Ac-G[2Thi][Orn][Aze][dCha][Bta]F-NH2)",20 to 50
2,"CCCC[C@@H]1NC(=O)[C@H](Cc2c[nH]c3ccccc23)NC(=O)[C@@H](CC2CCCCC2)NC(=O)[C@H](CO)NC(=O)[C@@H](NC(=O)[C@H](Cc2ccccc2)NC(C)=O)CCCNC1=O [Compound 200, Ac-Phe-[Orn-Ser-cha-Trp-Nle]] (Ac-F[Orn]S[dCha]W[Nle]; lactam 2-C)",50 to 200
3,"CCCC[C@@H]1NC(=O)[C@H](Cc2c[nH]c3ccccc23)NC(=O)[C@@H](CC2CCCCC2)NC(=O)[C@H](CO)NC(=O)[C@@H](NC(=O)[C@@H](N)Cc2ccccc2)CCCNC1=O [Compound 382, H-Phe-[Orn-Ser-cha-Trp-Nle]] (H-F[Orn]S[dCha]W[Nle]; lactam 2-C)",20 to 50
4,"CC(=O)N[C@@H](Cc1ccccc1)C(=O)N[C@@H](CCCN)C(=O)N1CCC[C@H]1C(=O)N[C@H](CSC(C)(C)C)C(=O)N[C@@H](Cc1cccc(Cl)c1)C(=O)N[C@@H](Cc1ccccc1)C(N)=O [Compound 265, Ac-Phe-Orn-Pro-ctb-Mcf-Phe-NH2] (Ac-F[Orn]P[dC](tBu)[Phe(3-Cl)]F-NH2)",50 to 200
5,"CC(=O)N[C@@H](Cc1ccccc1)C(=O)N[C@@H](CCCN)C(=O)N1CCC[C@H]1C(=O)N[C@H](CSC(C)(C)C)C(=O)N[C@@H](Cc1csc2ccccc12)C(=O)N[C@@H](Cc1ccccc1)C(N)=O [Compound 263, Ac-Phe-Orn-Pro-ctb-Bta-Phe-NH2] (Ac-F[Orn]P[dC](tBu)[Bta]F-NH2)",20 to 50
6,"CC(=O)NCC(=O)N[C@@H](Cc1ccccc1)C(=O)N[C@@H](CCCN)C(=O)N1CC[C@H]1C(=O)N[C@H](CCC1CCCCC1)C(=O)N[C@@H](Cc1csc2ccccc12)C(=O)N[C@@H](Cc1ccccc1)C(N)=O [Compound 156, Ac-Gly-Phe-Orn-Aze-hch-Bta-Phe-NH2] (Ac-GF[Orn][Aze][d(hCha)][Bta]F-NH2)",50 to 200
7,"CCCC[C@@H]1NC(=O)[C@H](Cc2c[nH]c3ccccc23)NC(=O)[C@@H](Cc2ccccc2C)NC(=O)[C@@H]2CCCN2C(=O)[C@@H](NC(=O)[C@H](Cc2ccccc2)NC(C)=O)CCCNC1=O [Compound 147, Ac-Phe-[Orn-Pro-omf-Trp-Nle]] (Ac-F[Orn]P[dPhe(2-Me)]W[Nle]; lactam 2-C)",10 to 20
8,"CC(C)CC[C@@H](NC(=O)[C@@H]1CCCN1C(=O)[C@H](CCCNC(N)=O)NC(=O)[C@H](Cc1ccccc1)NC(=O)c1cccnc1)C(=O)N[C@@H](Cc1csc2ccccc12)C(=O)N[C@@H](Cc1ccccc1)C(N)=O [Compound 329, Fbn-Phe-Cit-Pro-hle-Bta-Phe-NH2] (Nicotinoyl-F[Cit]P[d(hLeu)][Bta]F-NH2)",50 to 200
9,"C#CC[C@@H]1NC(=O)[C@H](Cc2c[nH]c3ccccc23)NC(=O)[C@@H](CC2CCCCC2)NC(=O)[C@@H]2CCCN2C(=O)[C@@H](NC(=O)[C@H](Cc2ccccc2)NC(C)=O)CCCNC1=O [Compound 35, Ac-Phe-[Orn-Pro-cha-Trp-Eag]] (Ac-F[Orn]P[dCha]W[Pra]; lactam 2-C)",5 to 10
10,"CC(=O)N[C@@H](Cc1ccccc1)C(=O)N[C@H]1CCCNC(=O)[C@H](Cc2cn(C)cn2)NC(=O)[C@H](Cc2c[nH]c3ccccc23)NC(=O)[C@@H](CC2CCCCC2)NC(=O)[C@@H]2CCCN2C1=O [Compound 192, Ac-Phe-[Orn-Pro-cha-Trp-Ecr]] (Ac-F[Orn]P[dCha]W[His(τ-Me)]; lactam 2-C)",20 to 50
11,"CC(C)CC[C@H]1NC(=O)[C@@H]2CCCN2C(=O)[C@@H](NC(=O)[C@@H](N)Cc2ccccc2)CCCNC(=O)[C@H](Cc2ccccc2)NC(=O)[C@H](Cc2ccc(F)cc2)NC1=O [Compound 380, H-Phe-[Orn-Pro-hle-Pff-Phe]] (H-F[Orn]P[d(hLeu)][Phe(4-F)]F; lactam 2-C)",20 to 50
12,"CCCC[C@@H]1NC(=O)[C@H](Cc2csc3ccccc23)NC(=O)[C@@H](CC2CCCCC2)NC(=O)[C@@H]2CCCN2C(=O)[C@@H](NCc2ccccc2)CCCNC1=O [Compound 315, Bzl-[Orn-Pro-cha-Bta-Nle]]",50 to 200
13,"CC(=O)N[C@@H](Cc1ccccc1)C(=O)N[C@H]1CCCNC(=O)[C@H](Cc2cccc3ccccc23)NC(=O)[C@H](Cc2c[nH]c3ccccc23)NC(=O)[C@@H](CC2CCCCC2)NC(=O)[C@@H]2CCCN2C1=O [Compound 188, Ac-Phe-[Orn-Pro-cha-Trp-1Ni]] (Ac-F[Orn]P[dCha]W[1Nal]; lactam 2-C)",50 to 200
14,"COCCN(CC(=O)N[C@H](CC1CCCCC1)C(=O)N[C@@H](Cc1csc2ccccc12)C(=O)N[C@@H](Cc1ccccc1)C(N)=O)C(=O)[C@H](CCCN)NC(=O)[C@H](Cc1ccccc1)NC(C)=O [Compound 238, Ac-Phe-Orn-G25-cha-Bta-Phe-NH2] (Ac-F[Orn][Nme][dCha][Bta]F-NH2)",50 to 200
15,"CC(=O)NCCC[C@H](NC(=O)[C@H](Cc1ccccc1)NC(C)=O)C(=O)N1CCC[C@H]1C(=O)N[C@H](CC1CCCCC1)C(=O)N[C@@H](Cc1c[nH]c2ccccc12)C(=O)N[C@@H](Cc1ccccc1)C(N)=O [Compound 82, Ac-Phe-Orn(Ac)-Pro-cha-Trp-Phe-NH2] (Ac-F[Orn](Ac)P[dCha]WF-NH2)",50 to 200
16,"CC(=O)N[C@@H](Cc1ccccc1)C(=O)N[C@@H](CCCNC(N)=O)C(=O)N1C[C@H](O)C[C@H]1C(=O)N[C@H](CCC(C)C)C(=O)N[C@@H](Cc1csc2ccccc12)C(=O)N[C@@H](Cc1ccccc1)C(N)=O [Compound 209, Ac-Phe-Cit-Hyp-hle-Bta-Phe-NH2] (Ac-F[Cit][Hyp][d(hLeu)][Bta]F-NH2)",50 to 200
17,"CC(=O)N[C@@H](Cc1ccccc1)C(=O)N[C@@H](CCCCNC(=N)N)C(=O)N1CC[C@H]1C(=O)N[C@H](CC1CCCCC1)C(=O)N[C@@H](Cc1csc2ccccc12)C(=O)N[C@@H](Cc1ccccc1)C(N)=O [Compound 229, Ac-Phe-Har-Aze-cha-Bta-Phe-NH2] (Ac-F[hArg][Aze][dCha][Bta]F-NH2)",10 to 20
18,"CCCC[C@@H]1NC(=O)[C@H](Cc2ccc(F)cc2)NC(=O)[C@@H](CCC(C)C)NC(=O)[C@@H]2CCCN2C(=O)[C@@H](NC(=O)[C@H](Cc2ccccc2)NC(=O)CCN)CCCNC1=O [Compound 343, H-Bal-Phe-[Orn-Pro-hle-Pff-Nle]] (H-[βAla]F[Orn]P[d(hLeu)][Phe(4-F)][Nle]; lactam 3-C)",50 to 200
19,"CNC(=O)[C@H](Cc1ccccc1)NC(=O)[C@H](Cc1csc2ccccc12)NC(=O)[C@@H](CC1CCCCC1)NC(=O)[C@@H]1CCN1C(=O)[C@H](CCCN)NC(=O)[C@H](Cc1ccccc1)NC(C)=O [Compound 95, Ac-Phe-Orn-Aze-cha-Bta-Phe-NH—Me] (Ac-F[Orn][Aze][dCha][Bta]F-NHMe)",200 to 2000
20,"CC(C)CC[C@@H](NC(=O)[C@@H]1CCCN1C(=O)[C@H](CCCN)NC(=O)[C@H](Cc1ccccc1)NC(=O)[C@@H]1CC(=O)NC(=O)N1)C(=O)N[C@@H](Cc1csc2ccccc12)C(=O)N[C@@H](Cc1ccccc1)C(N)=O [Compound 350, Hoo-Phe-Orn-Pro-hle-Bta-Phe-NH2] ({Dihydroorotyl(S)}-F[Orn]P[d(hLeu)][Bta]F-NH2)",20 to 50
21,"COc1cccc(C[C@H](NC(C)=O)C(=O)N[C@@H](CCCN)C(=O)N2CCC[C@H]2C(=O)N[C@H](CCC(C)C)C(=O)N[C@@H](Cc2ccc(F)cc2)C(=O)N[C@@H](Cc2ccccc2)C(N)=O)c1 [Compound 164, Ac-Mmy-Orn-Pro-hle-Pff-Phe-NH2] (Ac-[Phe(3-OMe)][Orn]P[d(hLeu)][Phe(4-F)]F-NH2)",50 to 200
22,CC(=O)N[C@@H](Cc1ccccc1)C(=O)N[C@H]1CCCNC(=O)[C@H](CCCCN)NC(=O)[C@H](Cc2c[nH]c3ccccc23)NC(=O)[C@@H](CC2CCCCC2)NC(=O)[C@@H]2CCCN2C1=O [Compound 22] (Ac-F[Orn]P[dCha]WK; lactam 2-C (inferred)),> 2000
23,"CC(=O)N[C@@H](Cc1ccccc1)C(=O)N[C@@H](CCCN)C(=O)N1CCC[C@H]1C(=O)N[C@H](CCC(C)C)C(=O)NC(Cc1c[nH]c2ccc(C)cc12)C(=O)N[C@@H](Cc1ccccc1)C(N)=O (stereo partly drawn) [Compound 285, Ac-Phe-Orn-Pro-hle-Egc-Phe-NH2] (Ac-F[Orn]P[d(hLeu)][ξTrp(5-Me)]F-NH2)",50 to 200

# Same assay, conditions: functional assay of example 11; noteworthy = IC50 less than 200 nM
row,SMILES,inhibitory activity (in words)
1,"C#CC[C@@H]1NC(=O)[C@H](Cc2c[nH]c3ccccc23)NC(=O)[C@@H](CC2CCCCC2)NC(=O)[C@@H]2CCCN2C(=O)[C@@H](NC(=O)[C@H](Cc2ccccc2)NC(C)=O)CCCNC1=O [Compound 35, Ac-Phe-[Orn-Pro-cha-Trp-Eag]] (Ac-F[Orn]P[dCha]W[Pra]; lactam 2-C)",without significant loss of activity

# Same assay, conditions: functional assay of example 11; noteworthy = IC50 less than 200 nM; listed as Ac-Phe-[Orn-Pro-cha-Trp-Eag]
row,SMILES,inhibitory activity (in words)
1,"C#CC[C@@H]1NC(=O)[C@H](Cc2c[nH]c3ccccc23)NC(=O)[C@@H](CC2CCCCC2)NC(=O)[C@@H]2CCCN2C(=O)[C@@H](NC(=O)[C@H](Cc2ccccc2)NC(C)=O)CCCNC1=O [Compound 35, Ac-Phe-[Orn-Pro-cha-Trp-Eag]] (Ac-F[Orn]P[dCha]W[Pra]; lactam 2-C)",noteworthy inhibitory activity

# — US20080161232A1, “C5a Receptor Antagonist” (JERINI AG, priority 2005, published 2008)
